{"source": "patent US7923465B2", "about": "“Cannabinoid receptor ligands, pharmaceutical compositions containing them, and process for their preparation” (priority 2005, dated 2011)", "molecular_target": "hCB1 (Homo sapiens, UniProt P21554)", "sequence (P21554 whole entry)": "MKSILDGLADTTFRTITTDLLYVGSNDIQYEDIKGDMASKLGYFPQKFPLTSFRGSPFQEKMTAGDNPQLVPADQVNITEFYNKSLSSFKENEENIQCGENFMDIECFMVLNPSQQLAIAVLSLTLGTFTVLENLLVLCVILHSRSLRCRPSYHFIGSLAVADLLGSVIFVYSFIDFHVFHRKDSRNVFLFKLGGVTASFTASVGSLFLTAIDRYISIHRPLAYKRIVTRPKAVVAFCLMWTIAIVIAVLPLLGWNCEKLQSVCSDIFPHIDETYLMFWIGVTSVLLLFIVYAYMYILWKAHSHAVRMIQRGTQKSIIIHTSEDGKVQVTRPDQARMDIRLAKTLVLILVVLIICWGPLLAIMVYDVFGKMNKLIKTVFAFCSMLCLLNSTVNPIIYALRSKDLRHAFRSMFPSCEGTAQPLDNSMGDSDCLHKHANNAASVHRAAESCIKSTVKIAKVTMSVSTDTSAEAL", "experiment": "In vitro binding assay using hCB1-CHO membranes, [3H]-CP-55,940 displacement (Protocol II)", "design": "expressed in transfected cells; host or cells: CHO (hCB1-CHO, generated in-house)", "procedure,_shortened": "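Incubated 1 h at 37° C, stopped by rapid vacuum filtration on PEI-precoated GF/B filters, bound radioactivity counted by liquid scintillation.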", "data": [{"compound": "O=C(NN1CCCCC1)c1nn(-c2ccc(Cl)cc2)c2c1C1CC3CC(C1)CC2C3", "note": "[Example 140, N(7)-Piperidino-5-(4′-chlorophenyl)-5,6-diazatetracyclo[7.3.1.1^3,11.0^4,8]tetradeca-4(8)-6-diene-7-carboxamide]", "values": [{"measurement": "% Displacement Protocol II", "value": 57.85, "unit": "%"}]}]}
